Three molecules from patent US12643867B2, “Compositions and uses thereof” (University of Virginia Patent Foundation, priority 2017, dated 2026) can be followed below.

Assay in all cases: SILAC LC-MS ATP acyl phosphate probe competition, native kinases in HEK293T
Holding throughout (type): binding

The target in assay [1] is T1, CDK1 (Cell division control protein 2 homolog) (Homo sapiens, UniProt P06493).
T1 construct: measured against >50 native kinases quantified in HEK293T soluble proteomes; endogenous in cells; host or cells: HEK293T soluble proteome
T1 sequence (P06493 whole entry): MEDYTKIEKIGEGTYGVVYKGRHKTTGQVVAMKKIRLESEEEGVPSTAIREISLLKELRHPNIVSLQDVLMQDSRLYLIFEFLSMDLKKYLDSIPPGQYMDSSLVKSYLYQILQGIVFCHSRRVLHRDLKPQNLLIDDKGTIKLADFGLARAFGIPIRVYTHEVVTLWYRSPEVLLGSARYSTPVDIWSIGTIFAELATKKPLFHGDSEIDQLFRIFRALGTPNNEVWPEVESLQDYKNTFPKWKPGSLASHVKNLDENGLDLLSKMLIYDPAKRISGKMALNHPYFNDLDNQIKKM
Particulars: site Lys2; ATP 1 mM; Ketanserin, Ritanserin 100 μM; RF001 1 mM. The procedure:
(§1) Proteomes were diluted to 2 mg/ml in kinase buffer. The light and heavy proteomes (0.5 mg, 250 μL total reaction volume) were pre-treated with vehicle or compound, respectively (5 μL, DMSO (light) or 50× stock in DMSO (heavy)), mixed gently, and incubated at 25° C. for 30 min. […] After incubation, matched light and heavy proteomes were transferred and mixed in a 1:1 ratio in a two-dram vial containing 4:1:3 MeOH/CHCl3/H2O (2 mL MeOH, 500 AL CHCl3, 1.5 mL H2O) for extraction of proteins to remove excess probe, quickly vortexed, and centrifuged at 1,400×g for 3 min to pellet protein. Organic and aqueous layers were removed using a Pasteur pipette, and the protein pellet was transferred to a screw-top tube in 600 μL MeOH. A second extraction was performed by adding CHCl3 (150 μL) and H2O (600 μL) to each sample, vortexed, and centrifuged at 1,400×g for 3 min to pellet protein. Organic and aqueous layers were removed by pipetting. MeOH added to pellet (600 μL) and pellets were re-suspended by sonication (3×1 sec pulse, 20% amplitude) for a final extraction. Samples were then centrifuged at 17,000×g for 5 min to pellet protein and MeOH was removed by pipetting. The pellets were re-suspended in 10 M urea/25 mM ammonium bicarbonate ([…]), brought to a final volume of 1 mL with 25 mM ammonium bicarbonate, reduced with 10 mM DTT for 15 min at 65° C. allowed to cool, and then alkylated with 40 mM iodoacetamide for 30 min at 25° C. in the dark. To desalt the samples, each was transferred to a two-dram glass vial, and to the vial 4:1:2 MeOH/CHCl3/H2O (2 mL MeOH, 500 AL CHCl3, 1 mL H2O) was added. The vials were vortexed quickly, spun at 1.400×g for 3 min to pellet protein, and aqueous and organic layers were removed using a Pasteur pipette. The resulting protein pellet was transferred to a screw-top tube in 600 μL MeOH, and then CHCl3 (150 μL) and HO (600 μL) were added to extract protein a second time. The samples were vortexed quickly, centrifuged at 1,400×g to pellet protein, and the aqueous and organic layers were removed by pipetting. Resulting protein pellet was suspended in MeOH (600 μL) via sonication (3×1 sec pulse, 20% amplitude), centrifuged at 17,000×g for 5 min to pellet protein, and MeOH removed by pipetting. Protein pellets were then re-suspended in 25 mM ammonium bicarbonate (500 μL) and digested with 7.5 μg Trypsin/Lys-C(Promega, 15 μL, 0.5 μg/μL) for 3 h at 37° C. Avidin-agarose beads (Thermo Scientific Pierce, 100 AL aliquot per sample) were washed three times by adding 10 mL DPBS, centrifuged at 1,400×g for 1 min, and decanting. This wash step was repeated for a total of 3 times. Digested protein samples were mixed with washed avidin beads (100 μL) and brought to a volume of 5.5 mL with DPBS in a 15 mL conical and rotated for 1 h to enrich samples for the covalent desthiobiotin modification. The beads were washed with 25 mM ammonium bicarbonate (3× with 10 mL, centrifuge at 1,400×g for 3 min, decant) and then H2O (3× with 10 mL, centrifuge at 1,400×g for 3 min, decant). Washed beads were then transferred to a low-bind microfuge tube, centrifuged at 1,400×g for 3 min, allowed to rest for 1 min to settle beads, and then excess H2O was removed carefully using a gel-loading pipette tip. To elute peptides, 100 μL of elution buffer (50% acetonitrile, ACN; 0.1% formic acid) was added to each sample and incubated for 3 min. Beads were spun down at 1.400×g for 3 min, allowed to rest for 1 min to settle beads, and then 75 μL of peptide-containing supernatant was removed carefully using a gel-loading pipette tip and transferred to a new low bind centrifuge tube. This step was repeated two more times with 75 μL of elution buffer and all eluent were collected into the same centrifuge tube (˜225 μL total). Peptides were dried on a speed vacuum, resulting peptide samples acidified in 5% (v/v) formic acid, and stored at −80° C. until analysis.
(§2) The peptide samples were analyzed by liquid chromatography-mass spectrometry. […]

The target in assay [2] is T2, CDK2 (Cell division protein kinase 2) (Homo sapiens, UniProt P24941).
T2 construct: measured against >50 native kinases quantified in HEK293T soluble proteomes; endogenous in cells; host or cells: HEK293T soluble proteome
The following applies: site Lys2; ATP 1 mM; Ketanserin, Ritanserin 100 μM; RF001 1 mM. The procedure:
as §1, §2

Assay [3] has as its target T3, CDK5 (Cell division protein kinase 5) (Homo sapiens, UniProt Q00535).
T3 construct: measured against >50 native kinases quantified in HEK293T soluble proteomes; endogenous in cells; host or cells: HEK293T soluble proteome
Particulars: site Lys2; ATP 1 mM; Ketanserin, Ritanserin 100 μM; RF001 1 mM. On the procedure:
as §1, §2

For assay [4], the target named is T4, IRAK1 (Interleukin-1 receptor-associated kinase 1) (Homo sapiens, UniProt P51617).
T4 construct: measured against >50 native kinases quantified in HEK293T soluble proteomes; endogenous in cells; host or cells: HEK293T soluble proteome
T4 sequence (P51617 whole entry): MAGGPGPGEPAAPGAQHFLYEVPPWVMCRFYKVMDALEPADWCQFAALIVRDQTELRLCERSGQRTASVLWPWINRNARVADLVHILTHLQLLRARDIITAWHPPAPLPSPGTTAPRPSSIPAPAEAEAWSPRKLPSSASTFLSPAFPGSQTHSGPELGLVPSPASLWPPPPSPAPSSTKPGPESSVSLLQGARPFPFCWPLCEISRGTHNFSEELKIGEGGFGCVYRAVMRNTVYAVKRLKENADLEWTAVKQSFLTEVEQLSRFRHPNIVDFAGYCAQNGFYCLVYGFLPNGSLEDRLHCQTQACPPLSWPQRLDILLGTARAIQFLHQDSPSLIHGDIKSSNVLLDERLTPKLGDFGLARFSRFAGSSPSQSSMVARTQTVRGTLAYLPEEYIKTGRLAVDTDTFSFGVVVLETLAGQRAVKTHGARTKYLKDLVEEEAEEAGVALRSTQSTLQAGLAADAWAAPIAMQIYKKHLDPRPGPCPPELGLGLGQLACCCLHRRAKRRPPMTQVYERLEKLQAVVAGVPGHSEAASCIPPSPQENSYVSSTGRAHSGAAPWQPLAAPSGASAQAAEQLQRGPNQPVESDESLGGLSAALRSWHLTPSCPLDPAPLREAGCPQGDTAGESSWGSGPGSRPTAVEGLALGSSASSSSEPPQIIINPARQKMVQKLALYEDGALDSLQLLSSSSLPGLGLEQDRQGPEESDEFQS
Particulars: site Lys2; ATP 1 mM; Ketanserin, Ritanserin 100 μM; RF001 1 mM. The procedure: as §1, §2

In assay [5] the target is T5, KS6B1 (Ribosomal protein S6 kinase 1, p70 S6 kinase alpha) (Homo sapiens, UniProt P23443).
T5 construct: measured against >50 native kinases quantified in HEK293T soluble proteomes; endogenous in cells; host or cells: HEK293T soluble proteome
T5 sequence (P23443 whole entry): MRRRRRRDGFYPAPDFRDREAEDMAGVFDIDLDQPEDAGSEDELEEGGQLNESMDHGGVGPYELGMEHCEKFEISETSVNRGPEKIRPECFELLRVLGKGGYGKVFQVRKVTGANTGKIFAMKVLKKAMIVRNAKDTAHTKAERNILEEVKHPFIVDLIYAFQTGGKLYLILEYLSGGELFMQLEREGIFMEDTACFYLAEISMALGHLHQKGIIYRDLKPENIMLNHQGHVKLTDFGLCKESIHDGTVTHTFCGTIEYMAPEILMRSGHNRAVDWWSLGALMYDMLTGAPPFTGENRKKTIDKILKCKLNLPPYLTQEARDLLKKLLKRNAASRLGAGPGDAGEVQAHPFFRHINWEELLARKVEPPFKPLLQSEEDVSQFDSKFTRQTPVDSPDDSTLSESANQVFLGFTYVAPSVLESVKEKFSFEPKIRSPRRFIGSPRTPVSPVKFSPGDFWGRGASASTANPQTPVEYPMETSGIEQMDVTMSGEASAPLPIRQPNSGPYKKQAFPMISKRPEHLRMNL
The following applies: site Lys2; ATP 1 mM; Ketanserin, Ritanserin 100 μM; RF001 1 mM. The procedure:
as §1, §2

Assay [6] deals with T6, NEK3 (Serine/threonine-protein kinase Nek3) (Homo sapiens, UniProt P51956).
T6 construct: Native kinases; endogenous in cells; host or cells: HEK293T soluble proteome
T6 sequence (P51956 1-506): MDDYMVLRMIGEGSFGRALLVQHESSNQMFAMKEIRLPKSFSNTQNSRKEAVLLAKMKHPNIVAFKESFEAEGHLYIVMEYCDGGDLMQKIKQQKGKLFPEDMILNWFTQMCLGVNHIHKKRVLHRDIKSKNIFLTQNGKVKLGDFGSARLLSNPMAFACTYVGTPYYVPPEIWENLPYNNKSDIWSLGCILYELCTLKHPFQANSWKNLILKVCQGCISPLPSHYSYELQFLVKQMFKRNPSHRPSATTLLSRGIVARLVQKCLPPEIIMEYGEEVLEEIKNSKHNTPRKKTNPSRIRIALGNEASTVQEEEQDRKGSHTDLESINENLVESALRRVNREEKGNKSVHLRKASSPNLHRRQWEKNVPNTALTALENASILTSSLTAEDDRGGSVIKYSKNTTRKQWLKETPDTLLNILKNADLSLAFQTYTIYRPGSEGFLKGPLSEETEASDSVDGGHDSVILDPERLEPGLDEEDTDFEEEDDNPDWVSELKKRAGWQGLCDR
The following applies: site ACT; ATP 1 mM; Ketanserin, Ritanserin 100 μM; RF001 1 mM. On the procedure:
as §1, §2

For assay [7], the target named is T7, RAF1 (RAF proto-oncogene serine/threonine-protein kinase) (Homo sapiens, UniProt P04049).
T7 construct: Native kinases; endogenous in cells; host or cells: HEK293T soluble proteome
T7 sequence (P04049 whole entry): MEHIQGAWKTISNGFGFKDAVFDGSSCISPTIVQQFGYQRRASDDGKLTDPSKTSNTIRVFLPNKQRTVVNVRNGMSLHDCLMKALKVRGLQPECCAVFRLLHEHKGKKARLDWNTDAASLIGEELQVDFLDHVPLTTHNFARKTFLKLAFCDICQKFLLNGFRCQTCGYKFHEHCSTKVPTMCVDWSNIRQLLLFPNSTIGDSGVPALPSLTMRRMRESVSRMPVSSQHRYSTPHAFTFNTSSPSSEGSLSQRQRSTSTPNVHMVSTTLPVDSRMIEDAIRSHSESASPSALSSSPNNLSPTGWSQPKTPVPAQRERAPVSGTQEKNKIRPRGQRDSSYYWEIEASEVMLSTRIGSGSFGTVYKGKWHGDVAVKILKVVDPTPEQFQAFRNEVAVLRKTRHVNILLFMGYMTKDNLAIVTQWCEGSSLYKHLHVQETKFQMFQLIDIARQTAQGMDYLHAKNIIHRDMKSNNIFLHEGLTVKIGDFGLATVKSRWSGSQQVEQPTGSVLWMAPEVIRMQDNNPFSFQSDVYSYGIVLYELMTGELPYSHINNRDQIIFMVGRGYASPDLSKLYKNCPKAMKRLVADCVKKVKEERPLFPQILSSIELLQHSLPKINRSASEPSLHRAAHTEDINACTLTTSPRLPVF
Particulars: site Lys2; ATP 1 mM; Ketanserin, Ritanserin 100 μM; RF001 1 mM. The procedure:
as §1, §2

Assay [8] deals with T8, SLK (CTCL tumor antigen se20-9) (Homo sapiens, UniProt Q9H2G2).
T8 construct: Native kinases; endogenous in cells; host or cells: HEK293T soluble proteome
T8 sequence (Q9H2G2 whole entry): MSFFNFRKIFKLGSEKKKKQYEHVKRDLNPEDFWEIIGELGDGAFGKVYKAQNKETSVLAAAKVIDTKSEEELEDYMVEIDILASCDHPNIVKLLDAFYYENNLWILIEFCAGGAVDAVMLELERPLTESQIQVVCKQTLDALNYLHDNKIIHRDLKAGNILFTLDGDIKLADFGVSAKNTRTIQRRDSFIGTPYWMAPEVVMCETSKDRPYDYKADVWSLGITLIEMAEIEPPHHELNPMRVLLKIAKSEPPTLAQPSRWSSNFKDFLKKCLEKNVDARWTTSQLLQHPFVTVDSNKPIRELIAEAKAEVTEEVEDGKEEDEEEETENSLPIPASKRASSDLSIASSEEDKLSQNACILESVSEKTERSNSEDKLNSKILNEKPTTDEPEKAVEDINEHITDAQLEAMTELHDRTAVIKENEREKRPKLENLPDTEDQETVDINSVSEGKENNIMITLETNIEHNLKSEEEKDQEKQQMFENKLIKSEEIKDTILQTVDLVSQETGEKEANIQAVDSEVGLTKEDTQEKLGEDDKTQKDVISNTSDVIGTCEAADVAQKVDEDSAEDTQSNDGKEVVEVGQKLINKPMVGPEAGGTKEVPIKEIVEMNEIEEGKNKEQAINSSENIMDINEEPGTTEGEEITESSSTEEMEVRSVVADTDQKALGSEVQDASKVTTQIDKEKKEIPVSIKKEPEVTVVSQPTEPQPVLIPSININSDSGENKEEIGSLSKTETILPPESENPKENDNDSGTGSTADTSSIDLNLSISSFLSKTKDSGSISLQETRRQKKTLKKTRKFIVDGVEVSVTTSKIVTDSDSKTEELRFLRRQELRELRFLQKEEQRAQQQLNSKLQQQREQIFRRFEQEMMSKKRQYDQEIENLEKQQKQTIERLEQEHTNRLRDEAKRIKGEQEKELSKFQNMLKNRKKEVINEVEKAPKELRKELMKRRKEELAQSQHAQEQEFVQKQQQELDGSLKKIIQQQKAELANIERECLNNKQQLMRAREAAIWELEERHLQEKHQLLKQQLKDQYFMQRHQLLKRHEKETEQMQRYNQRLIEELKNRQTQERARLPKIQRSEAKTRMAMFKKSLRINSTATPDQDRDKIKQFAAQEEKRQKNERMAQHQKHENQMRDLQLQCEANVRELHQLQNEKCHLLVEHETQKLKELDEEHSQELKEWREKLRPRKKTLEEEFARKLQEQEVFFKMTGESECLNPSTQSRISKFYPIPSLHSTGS
Particulars: site Lys2; ATP 1 mM; Ketanserin, Ritanserin 100 μM; RF001 1 mM. On the procedure: as §1, §2

T3 sequence (Q00535 whole entry): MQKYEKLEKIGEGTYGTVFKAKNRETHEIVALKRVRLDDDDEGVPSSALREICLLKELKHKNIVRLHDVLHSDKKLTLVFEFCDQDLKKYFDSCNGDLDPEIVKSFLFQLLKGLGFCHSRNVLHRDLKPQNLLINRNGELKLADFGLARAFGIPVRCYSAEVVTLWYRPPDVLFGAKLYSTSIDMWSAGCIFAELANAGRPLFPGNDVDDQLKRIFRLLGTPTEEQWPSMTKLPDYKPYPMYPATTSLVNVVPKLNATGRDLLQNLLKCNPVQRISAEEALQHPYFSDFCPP

For the molecule `O=C(c1ccc(F)cc1)C1CCN(CCn2c(=O)[nH]c3ccccc3c2=O)CC1` [Ketanserin], the “SILAC ratio, CDK1 probe-modified peptide” value in assay [1] amounted to 1.4. Also, the “SILAC ratio, CDK2 probe-modified peptide” value in assay [2] is given as 1.6. Further, the “SILAC ratio, CDK5 probe-modified peptide” value in assay [3] turned out to be 1.3. In assay [4], the “SILAC ratio, IRAK1 probe-modified peptide” value stood at 1.4. Besides, the “SILAC ratio, KS6B1 probe-modified peptide” value in assay [5] is 1.2. In addition, the “SILAC ratio, NEK3 probe-modified peptide” value in assay [6] turned out to be 1.0. In addition, in assay [7], the “SILAC ratio, RAF1 probe-modified peptide” value turned out to be 1.4. The “SILAC ratio, SLK probe-modified peptide” value in assay [8] is 1.3.

Turning to `Fc1ccc(C(=C2CCNCC2)c2ccc(F)cc2)cc1` [RF001, 4-(Bis(4-fluorophenyl)methylene) piperidine], in assay [1], the “SILAC ratio, CDK1 probe-modified peptide” value amounted to 1.1. The “SILAC ratio, CDK2 probe-modified peptide” value in assay [2] was found to be 0.7. The “SILAC ratio, CDK5 probe-modified peptide” value in assay [3] was determined as 1.1. In addition, in assay [4], the “SILAC ratio, IRAK1 probe-modified peptide” value was 2.2. For the same molecule, the “SILAC ratio, KS6B1 probe-modified peptide” value in assay [5] is 1.0. For the same molecule, in assay [6], the “SILAC ratio, NEK3 probe-modified peptide” value came to 1.0. Moreover, the “SILAC ratio, RAF1 probe-modified peptide” value in assay [7] stood at 2.1. Moreover, in assay [8], the “SILAC ratio, SLK probe-modified peptide” value came to 1.5.

On to `Cc1nc2sccn2c(=O)c1CCN1CCC(=C(c2ccc(F)cc2)c2ccc(F)cc2)CC1` [Ritanserin], for which the “SILAC ratio, CDK1 probe-modified peptide” value in assay [1] turned out to be 2.4. Moreover, in assay [2], the “SILAC ratio, CDK2 probe-modified peptide” value came out at 2.9. The “SILAC ratio, CDK5 probe-modified peptide” value in assay [3] is 1.9. Further, in assay [4], the “SILAC ratio, IRAK1 probe-modified peptide” value is 2.6. Besides, in assay [5], the “SILAC ratio, KS6B1 probe-modified peptide” value turned out to be 1.3. Also, in assay [6], the “SILAC ratio, NEK3 probe-modified peptide” value is 2.2. Also, the “SILAC ratio, RAF1 probe-modified peptide” value in assay [7] is given as 3.9. Further, the “SILAC ratio, SLK probe-modified peptide” value in assay [8] is 3.0.
